{"source": "patent US20070082916A1", "about": "“Fungicidal mixtures for controlling rice pathogens” (BASF AKTIENGESEELSCHAFT, priority 2003, published 2007)", "tested_on": "Corticium sasakii", "assay": "Activity against sheath blight on rice caused by Corticium sasakii (protective spray on potted rice plants)", "format": "in vivo", "details": "individual active compound, rice cultivar Tai-Nong 67, evaluated after 11 days, untreated control 90% infection", "method": "1% by weight of the emulsifier Uniperol® EL (wetting agent having emulsifying and dispersing action based on ethoxylated alkylphenols) was added to this solution, and the solution was diluted with water to the desired concentration.\nUse example—Activity against sheath blight on rice caused by Corticium sasakii\nThe next day, oat grains infected with Corticium sasakii were placed into the pots (in each case 5 grains per pot). The plants were then placed in a chamber at 26° C. and maximum atmospheric humidity.\nEvaluation is carried out by determining the infected leaf areas in percent. These percentages were converted into efficacies.\nThe efficacy (E) is calculated as follows using Abbot's formula: E=(1−α/β)·100 • α corresponds to the fungicidal infection of the treated plants in % and • β corresponds to the fungicidal infection of the untreated (control) plants in %\nAn efficacy of 0 means that the infection level of the treated plants corresponds to that of the untreated control plants; an efficacy of 100 means that the treated plants are not infected."}
{"compound": "CC1CCN(c2c(-c3c(F)cccc3Cl)c(Cl)nc3ncnn23)CC1", "note": "[A]", "values": [{"measurement": "Efficacy in % of the untreated control", "setting": "4 ppm in the spray liquor", "value": 0, "unit": "%"}]}
{"compound": "zinc ammoniate-ethylenebis(dithiocarbamate) [II.3]", "values": [{"measurement": "Efficacy in % of the untreated control", "setting": "1 ppm in the spray liquor", "value": 0, "unit": "%"}, {"measurement": "Efficacy in % of the untreated control", "setting": "16 ppm in the spray liquor", "value": 22, "unit": "%"}]}
{"compound": "CC1CCN(c2c(-c3c(F)cc(F)cc3F)c(Cl)nc3ncnn23)CC1", "note": "[I, 5-chloro-7-(4-methylpiperidin-1-yl)-6-(2,4,6-trifluorophenyl)-[1,2,4]tri-azolo[1,5-a]pyrimidine]", "values": [{"measurement": "Efficacy in % of the untreated control", "setting": "4 ppm in the spray liquor", "value": 33, "unit": "%"}]}
{"compound": "manganese-ethylenebis(dithiocarbamate) [II.2]", "values": [{"measurement": "Efficacy in % of the untreated control", "setting": "1 ppm in the spray liquor", "value": 0, "unit": "%"}, {"measurement": "Efficacy in % of the untreated control", "setting": "16 ppm in the spray liquor", "value": 11, "unit": "%"}]}
{"compound": "CN(C)C(=S)SSC(=S)N(C)C", "note": "[II.5, bis(dimethylthiocarbamoyl)disulfide]", "values": [{"measurement": "Efficacy in % of the untreated control", "setting": "1 ppm in the spray liquor", "value": 0, "unit": "%"}, {"measurement": "Efficacy in % of the untreated control", "setting": "16 ppm in the spray liquor", "value": 0, "unit": "%"}]}
{"compound": "manganese-ethylenebis(dithiocarbamate)zinc complex [II.1]", "values": [{"measurement": "Efficacy in % of the untreated control", "setting": "1 ppm in the spray liquor", "value": 0, "unit": "%"}, {"measurement": "Efficacy in % of the untreated control", "setting": "16 ppm in the spray liquor", "value": 11, "unit": "%"}]}
{"compound": "CC(Nc1c(-c2c(F)cc(F)cc2F)c(Cl)nc2ncnn12)C(F)(F)F", "note": "(centres unmarked) [B]", "values": [{"measurement": "Efficacy in % of the untreated control", "setting": "4 ppm in the spray liquor", "value": 67, "unit": "%"}]}
